Earlier results in patent US10874753B2, “Radiopharmaceutical conjugate of a metabolite and an EPR agent, for targeting tumour cells” (The South African Nuclear Energy Corporation Limited, priority 2014, dated 2020).

Assays:
[1] = binding of Ga by N4O2 chelator
[2] = target: folate receptors (FR); conditions: binding to surface folate receptors (FR)

| Structure (SMILES) | stability constant [1] | Kd [2] |
| --- | --- | --- |
| O=C(O)c1cccc(CNCCNCc2cccc(C(=O)O)n2)n1 [Cyclam H2dedpa, (1,2-bis{[[6-(carboxy)pyridine-2-yl]methyl]-amino}-ethane)] | 28.1 | – |
| Nc1nc(=O)c2nc(CNc3ccc(C(=O)N[C@@H](CCC(=O)O)C(=O)O)cc3)cnc2[nH]1 [Folate] | – | ~1 nM |
